EP1285918A1, “C7 Ester substituted taxanes as antitumor agents” (Florida State University Research Foundation, Inc., priority 2001, dated 2003)

Legend:
HCT116 = experiment: In Vitro cytotoxicity measured by the cell colony formation assay; assay type: cell-based; settings: Homo sapiens, HCT-116; 72 h drug incubation, colonies counted after 7 days; concentration producing 50% inhibition of colony formation; read-out: IN VITRO ID 50 (nm) HCT116
blood cell populations = experiment: Effect of oral treatment on blood cell populations, body weight and tumor weight in MX-1 bearing mice (Example 25, Table 23); assay type: in vivo, nu/nu mice; settings: 107 mg/kg single oral bolus
Experimental: The study was terminated on Day 63.
In addition to survival and tumor regression responses, the effect of treatment on blood cell populations was assessed. The major effect of these antitumor compounds on blood cell populations was a marked reduction in the neutrophil cell number. As well, monocyte depletion correlated fairly well with neutrophil reduction for each antitumor compound. […] There was a correlation between antitumor activity and reduced neutrophil count. In general, toxicity (as determined by neutrophil depletion) and weight loss correlated with efficacy. Importantly, the toxicities observed with the very efficacious antitumor compounds were manageable and reversible; neutrophil count and body weight rebounded from their low points in just a few days. Table 23 summarizes the weight reduction, neutrophil and monocyte measurements on Day 4, with tumor weight reduction calculated at Day 18: Table 23

SMILES: CCC(=O)O[C@H]1C[C@H]2OC[C@@]2(OC(C)=O)[C@H]2[C@H](OC(=O)c3ccccc3)[C@]3(O)C[C@H](OC(=O)[C@H](O)[C@H](C=C(C)C)NC(=O)OC(C)(C)C)C(C)=C([C@@H](O)C(=O)[C@]12C)C3(C)C [Compound 1351]
- IC50 (HCT116): < 1 nM
- Monocytes (K/µL) (blood cell populations; Day 4): 0.088 K/µL
- Neutrophils (K/µL) (blood cell populations; Day 4): 0.408 K/µL
- % Reduction (blood cell populations; reduction of monocytes, Day 4): 8.3%
- % Reduction (blood cell populations; reduction of neutrophils, Day 4): 55.2%
- % Reduction (blood cell populations; reduction of tumor weight at Day 18): 85.9%
- Weight (blood cell populations; tumor weight at Day 18): 122.1 mg
